How the values were obtained:
[1] = biological target: T1, Protein kinase C beta type (Homo sapiens, UniProt P05771); assay: Inhibition of human Protein kinase C beta 1
[2] = biological target: Protein kinase C eta type (Homo sapiens, UniProt P24723); assay: Inhibition of human protein kinase C eta
[3] = biological target: T1, Protein kinase C beta type; assay: Inhibition of human Protein kinase C beta 2
[4] = biological target: Protein kinase C alpha type (Homo sapiens, UniProt P17252); assay: Inhibition of human Protein kinase C alpha
[5] = biological target: T2, Protein kinase C zeta type (Homo sapiens, UniProt Q05513); assay: Inhibition of Protein kinase C zeta
T2 sequence (Q05513 whole entry): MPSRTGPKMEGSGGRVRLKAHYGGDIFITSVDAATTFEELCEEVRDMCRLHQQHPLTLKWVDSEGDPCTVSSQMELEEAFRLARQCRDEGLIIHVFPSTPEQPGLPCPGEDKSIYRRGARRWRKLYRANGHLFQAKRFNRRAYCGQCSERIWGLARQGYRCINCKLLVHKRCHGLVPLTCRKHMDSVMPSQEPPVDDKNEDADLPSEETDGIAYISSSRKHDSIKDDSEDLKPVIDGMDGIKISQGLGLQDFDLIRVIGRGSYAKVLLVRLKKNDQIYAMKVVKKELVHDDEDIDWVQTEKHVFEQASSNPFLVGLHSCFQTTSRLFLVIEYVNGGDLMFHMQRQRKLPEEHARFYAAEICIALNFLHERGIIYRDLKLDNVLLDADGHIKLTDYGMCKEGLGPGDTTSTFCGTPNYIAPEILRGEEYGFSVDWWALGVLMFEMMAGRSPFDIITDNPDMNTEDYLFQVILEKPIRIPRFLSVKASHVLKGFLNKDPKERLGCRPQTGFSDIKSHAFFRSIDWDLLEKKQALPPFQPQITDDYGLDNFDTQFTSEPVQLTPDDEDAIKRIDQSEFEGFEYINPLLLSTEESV

[6] = biological target: Protein kinase C gamma type (Homo sapiens, UniProt P05129); assay: Inhibition of human Protein kinase C gamma
[7] = biological target: Protein kinase C delta type (Homo sapiens, UniProt Q05655); assay: Inhibition of human Protein kinase C delta
Protein kinase C delta type, sequence (Q05655 whole entry): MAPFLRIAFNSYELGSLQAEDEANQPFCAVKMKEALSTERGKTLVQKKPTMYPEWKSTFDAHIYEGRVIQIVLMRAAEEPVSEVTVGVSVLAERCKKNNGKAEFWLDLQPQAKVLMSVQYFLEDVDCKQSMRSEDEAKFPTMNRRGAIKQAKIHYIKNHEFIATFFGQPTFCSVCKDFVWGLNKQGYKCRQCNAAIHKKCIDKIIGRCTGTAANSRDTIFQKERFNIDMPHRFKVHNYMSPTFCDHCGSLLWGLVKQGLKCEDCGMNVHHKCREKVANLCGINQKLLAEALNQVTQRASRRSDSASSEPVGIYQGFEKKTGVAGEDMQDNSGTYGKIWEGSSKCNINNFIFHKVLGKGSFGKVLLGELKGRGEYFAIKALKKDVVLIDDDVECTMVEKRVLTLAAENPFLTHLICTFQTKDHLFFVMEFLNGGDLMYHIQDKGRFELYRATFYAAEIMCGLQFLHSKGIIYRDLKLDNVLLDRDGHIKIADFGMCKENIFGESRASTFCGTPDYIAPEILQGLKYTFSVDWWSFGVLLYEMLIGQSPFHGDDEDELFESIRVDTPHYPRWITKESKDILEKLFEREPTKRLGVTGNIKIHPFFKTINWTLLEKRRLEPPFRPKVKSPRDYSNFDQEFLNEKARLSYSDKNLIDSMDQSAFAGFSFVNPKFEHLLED

[8] = biological target: T3, Protein kinase C epsilon type (Homo sapiens, UniProt Q02156); assay: Inhibition of human Protein kinase C epsilon
T3 sequence (Q02156 whole entry): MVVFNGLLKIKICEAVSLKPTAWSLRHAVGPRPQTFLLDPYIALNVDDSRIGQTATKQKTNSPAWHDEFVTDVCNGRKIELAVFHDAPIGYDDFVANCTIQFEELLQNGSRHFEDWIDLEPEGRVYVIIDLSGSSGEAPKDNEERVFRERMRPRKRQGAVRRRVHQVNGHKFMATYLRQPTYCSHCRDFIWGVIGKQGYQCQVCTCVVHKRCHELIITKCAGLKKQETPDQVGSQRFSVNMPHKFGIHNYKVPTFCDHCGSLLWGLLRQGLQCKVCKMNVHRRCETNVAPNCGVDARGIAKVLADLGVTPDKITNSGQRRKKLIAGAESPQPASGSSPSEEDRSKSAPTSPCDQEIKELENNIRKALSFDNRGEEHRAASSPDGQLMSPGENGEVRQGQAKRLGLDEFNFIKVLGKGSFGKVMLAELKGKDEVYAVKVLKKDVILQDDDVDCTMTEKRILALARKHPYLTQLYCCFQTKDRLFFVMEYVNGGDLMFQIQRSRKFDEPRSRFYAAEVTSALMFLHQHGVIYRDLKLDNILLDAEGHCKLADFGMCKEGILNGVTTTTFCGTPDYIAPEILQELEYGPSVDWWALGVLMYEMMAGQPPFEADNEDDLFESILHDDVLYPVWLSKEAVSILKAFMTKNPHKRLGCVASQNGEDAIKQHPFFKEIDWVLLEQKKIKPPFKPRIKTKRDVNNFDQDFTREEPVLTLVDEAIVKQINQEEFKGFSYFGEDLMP

T1 sequence (P05771 whole entry): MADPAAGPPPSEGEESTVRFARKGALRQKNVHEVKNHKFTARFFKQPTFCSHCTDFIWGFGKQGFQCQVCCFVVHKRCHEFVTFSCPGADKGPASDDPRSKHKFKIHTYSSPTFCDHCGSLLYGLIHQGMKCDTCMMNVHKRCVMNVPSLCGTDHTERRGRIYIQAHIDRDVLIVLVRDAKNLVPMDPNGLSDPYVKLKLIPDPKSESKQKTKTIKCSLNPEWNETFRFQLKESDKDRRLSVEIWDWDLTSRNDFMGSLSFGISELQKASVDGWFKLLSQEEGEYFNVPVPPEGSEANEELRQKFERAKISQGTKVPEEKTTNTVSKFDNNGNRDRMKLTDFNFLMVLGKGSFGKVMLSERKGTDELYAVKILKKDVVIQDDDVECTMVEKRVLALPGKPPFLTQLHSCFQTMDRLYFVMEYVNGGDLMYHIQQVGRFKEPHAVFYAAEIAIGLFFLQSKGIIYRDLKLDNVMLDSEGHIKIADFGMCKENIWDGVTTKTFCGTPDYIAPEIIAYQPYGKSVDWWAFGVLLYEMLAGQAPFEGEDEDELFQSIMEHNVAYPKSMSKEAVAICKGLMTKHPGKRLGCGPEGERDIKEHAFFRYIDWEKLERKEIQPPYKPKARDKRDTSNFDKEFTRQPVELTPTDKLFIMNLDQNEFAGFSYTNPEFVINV
Protein kinase C eta type, sequence (P24723 whole entry): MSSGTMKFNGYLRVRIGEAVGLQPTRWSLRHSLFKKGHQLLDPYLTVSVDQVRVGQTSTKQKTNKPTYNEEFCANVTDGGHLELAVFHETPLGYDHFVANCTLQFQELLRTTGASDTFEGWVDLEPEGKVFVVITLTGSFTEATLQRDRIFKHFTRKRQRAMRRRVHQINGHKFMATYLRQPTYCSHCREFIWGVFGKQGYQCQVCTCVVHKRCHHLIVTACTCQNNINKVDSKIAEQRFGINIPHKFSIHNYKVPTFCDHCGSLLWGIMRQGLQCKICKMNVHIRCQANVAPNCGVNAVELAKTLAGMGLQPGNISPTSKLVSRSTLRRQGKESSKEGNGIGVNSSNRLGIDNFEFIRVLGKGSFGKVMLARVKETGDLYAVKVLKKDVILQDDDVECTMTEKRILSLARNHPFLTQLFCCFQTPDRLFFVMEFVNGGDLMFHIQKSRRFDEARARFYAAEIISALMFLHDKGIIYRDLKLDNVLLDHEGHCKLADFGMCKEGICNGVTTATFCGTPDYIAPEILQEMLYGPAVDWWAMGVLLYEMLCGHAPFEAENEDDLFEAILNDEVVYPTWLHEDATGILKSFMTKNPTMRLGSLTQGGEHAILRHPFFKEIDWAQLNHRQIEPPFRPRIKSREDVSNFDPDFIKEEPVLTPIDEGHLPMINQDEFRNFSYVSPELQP

An IC50 [1] of 0.032 µM, an IC50 [2] of 0.022 µM and an IC50 [3] of 0.044 µM were found for `O=C(N[C@@H]1CNCCC[C@H]1OC(=O)c1cc(O)c(C(=O)c2c(O)cccc2C(=O)O)c(O)c1)c1ccc(O)cc1` (racemic) [BALANOL] in this work. It also gave an IC50 [4] of 0.074 µM, an IC50 [5] of 3.5 µM and an IC50 [6] of 0.034 µM. The IC50 [7] was 0.032 µM.

An IC50 [1] of 0.04 µM, an IC50 [2] of 0.0006 µM and an IC50 [3] of 0.05 µM were found for `O=C(N[C@@H]1CCC[C@H]1OC(=O)c1cc(O)c(C(=O)c2c(O)cccc2C(=O)O)c(O)c1)c1ccc(O)cc1` in this work. It also gave an IC50 [4] of 0.04 µM, an IC50 [6] of 0.01 µM and an IC50 [7] of 0.0009 µM. It also gave an IC50 [8] of 0.05 µM.

An IC50 [1] of 0.017 µM, an IC50 [2] of 0.004 µM and an IC50 [3] of 0.033 µM were found for `O=C(N[C@@H]1CNC[C@H]1OC(=O)c1cc(O)c(C(=O)c2c(O)cccc2C(=O)O)c(O)c1)c1ccc(O)cc1` in this work. The IC50 [4] was 0.022 µM, the IC50 [5] was over 0.15 µM and the IC50 [6] was 0.013 µM. The IC50 [7] was 0.005 µM and the IC50 [8] was 0.01 µM.

An IC50 [1] of 0.22 µM, an IC50 [2] of 0.06 µM and an IC50 [3] of 0.43 µM were found for `O=C(N[C@@H]1CCCCC[C@H]1OC(=O)c1cc(O)c(C(=O)c2c(O)cccc2C(=O)O)c(O)c1)c1ccc(O)cc1` in this work. For the same compound, the IC50 [4] was 0.27 µM, the IC50 [5] was over 150 µM and the IC50 [6] was 0.06 µM. The IC50 [7] was 0.09 µM and the IC50 [8] was 0.28 µM.

An IC50 [1] of 2.2 µM, an IC50 [2] of 0.08 µM and an IC50 [3] of 4.7 µM were found for `O=C(N[C@@H]1CNCC[C@H]1OC(=O)c1cc(O)c(C(=O)c2c(O)cccc2C(=O)O)c(O)c1)c1ccc(O)cc1` in this work. The IC50 [4] was 5.1 µM, the IC50 [5] was over 150 µM and the IC50 [6] was 2.2 µM. For the same compound, the IC50 [7] was 0.05 µM and the IC50 [8] was 1.8 µM.
